Assay results published in US6613718B2, “Aryl ether derivatives and processes for their preparation and herbicidal and desiccant compositions containing them” (Ishihara Sangyo Kaisha, Ltd., priority 2001, dated 2003).

Assays:
Format in all cases: in vivo
[1] = test system: barnyardgrass (Echinochloa crus-galli, ECHCG); assay: Pre-emerge greenhouse herbicide activity screening, phytotoxicity rating; details: 14 days after application
In short: (§1)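 Rates of 15 to 1000 g ai/ha were applied by mechanized flat-fan spray. Phytotoxicity was then judged visually at 14 days using a 0-100 scale.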

[2] = test system: common ragweed (Ambrosia artemisiifolia L., AMBEL); assay: as above; details: 14 days after application
In short: as §1

[3] = test system: green foxtail (Setaria viridis, SETVI); assay: as above; details: 14 days after application
In short: as §1

[4] = test system: ivyleaf morningglory (Ipomoea hederacea, IPOHE); assay: as above; details: 14 days after application
In short: as §1

[5] = test system: johnsongrass (Sorghum halepense, SORHA); assay: as above; details: 14 days after application
In short: as §1

[6] = test system: lambsquarters (Chenopodium album, CHEAL); assay: as above; details: 14 days after application
In short: as §1

[7] = test system: large crabgrass (Digitaria sanguinalis, DIGSA); assay: as above; details: 14 days after application
In short: as §1

[8] = test system: redroot pigweed (Amaranthus retroflexus, AMARE); assay: as above; details: 14 days after application
In short: as §1

[9] = test system: sicklepod (Cassia obtusifolia, CASOB); assay: as above; details: 14 days after application
In short: as §1

[10] = test system: velvetleaf (Abutilon theophrasti, ABUTH); assay: as above; details: 14 days after application
In short: as §1

[11] = test system: field corn (Zea mays L., var. Dekalb 535, CORN); assay: Pre-emerge greenhouse screening, crop safety (phytotoxicity rating); details: 14 days after application
In short: as §1

[12] = test system: soybean (Glycine max L., var. Pella 86, SOY); assay: as above; details: 14 days after application
In short: as §1

[13] = test system: upland rice (Oryza sp., var.Tebonnet, RICE); assay: as above; details: 14 days after application
In short: as §1

[14] = test system: barnyardgrass (Echinochloa crus-galli, ECHCG); assay: Post-emerge greenhouse herbicide activity screening, phytotoxicity rating; details: 14 days after application
In short: as §1

[15] = test system: common ragweed (Ambrosia artemisiifolia L., AMBEL); assay: as above
In short: as §1

[16] = test system: green foxtail (Setaria viridis, SETVI); assay: as above
In short: as §1

[17] = test system: ivyleaf morningglory (Ipomoea hederacea, IPOHE); assay: as above; details: 14 days after application
In short: as §1

[18] = test system: johnsongrass (Sorghum halepense, SORHA); assay: as above; details: 14 days after application
In short: as §1

[19] = test system: lambsquarters (Chenopodium album, CHEAL); assay: as above
In short: as §1

[20] = test system: large crabgrass (Digitaria sanguinalis, DIGSA); assay: as above; details: 14 days after application
In short: as §1

[21] = test system: redroot pigweed (Amaranthus retroflexus, AMARE); assay: as above
In short: as §1

[22] = test system: sicklepod (Cassia obtusifolia, CASOB); assay: as above
In short: as §1

[23] = test system: velvetleaf (Abutilon theophrasti, ABUTH); assay: as above; details: 14 days after application
In short: as §1

[24] = test system: field corn (Zea mays L., var. Dekalb 535, CORN); assay: Post-emerge greenhouse screening, crop safety / corn selectivity (phytotoxicity rating); details: for CORN crop damage, phytotoxicity rating (0-100 scale): 14 days after application
In short: as §1

[25] = test system: soybean (Glycine max L., var. Pella 86, SOY); assay: Post-emerge greenhouse screening, crop safety (phytotoxicity rating); details: 14 days after application
In short: as §1

[26] = test system: upland rice (Oryza sp., var.Tebonnet, RICE); assay: as above; details: 14 days after application
In short: as §1

[27] = 125 g ai/ha, 14 days after application
[28] = 250 g ai/ha, 14 days after application

Fc1cc(Cl)c(Oc2ncccn2)cc1-c1nn2c(c1Br)CCCC2 [Compound 6-2]
ECHCG phytotoxicity rating (0-100 scale) ([1]; 125 g ai/ha): 99
ECHCG phytotoxicity rating (0-100 scale) ([1]; 250 g ai/ha): 100
AMBEL phytotoxicity rating (0-100 scale) ([2]; 125 g ai/ha): 99
AMBEL phytotoxicity rating (0-100 scale) ([2]; 250 g ai/ha): 100
SETVI phytotoxicity rating (0-100 scale) ([3]; 125 g ai/ha): 100
SETVI phytotoxicity rating (0-100 scale) ([3]; 250 g ai/ha): 100
IPOHE phytotoxicity rating (0-100 scale) ([4]; 125 g ai/ha): 85
IPOHE phytotoxicity rating (0-100 scale) ([4]; 250 g ai/ha): 100
SORHA phytotoxicity rating (0-100 scale) ([5]; 125 g ai/ha): 100
SORHA phytotoxicity rating (0-100 scale) ([5]; 250 g ai/ha): 100
CHEAL phytotoxicity rating (0-100 scale) ([6]; 125 g ai/ha): 100
CHEAL phytotoxicity rating (0-100 scale) ([6]; 250 g ai/ha): 100
DIGSA phytotoxicity rating (0-100 scale) ([7]; 125 g ai/ha): 100
DIGSA phytotoxicity rating (0-100 scale) ([7]; 250 g ai/ha): 100
AMARE phytotoxicity rating (0-100 scale) ([8]; 125 g ai/ha): 100
AMARE phytotoxicity rating (0-100 scale) ([8]; 250 g ai/ha): 100
CASOB phytotoxicity rating (0-100 scale) ([9]; 125 g ai/ha): 100
CASOB phytotoxicity rating (0-100 scale) ([9]; 250 g ai/ha): 100
ABUTH phytotoxicity rating (0-100 scale) ([10]; 125 g ai/ha): 100
ABUTH phytotoxicity rating (0-100 scale) ([10]; 250 g ai/ha): 100
CORN crop damage, phytotoxicity rating (0-100 scale) ([11]; 125 g ai/ha): 20
CORN crop damage, phytotoxicity rating (0-100 scale) ([11]; 250 g ai/ha): 40
SOY crop damage, phytotoxicity rating (0-100 scale) ([12]; 125 g ai/ha): 25
SOY crop damage, phytotoxicity rating (0-100 scale) ([12]; 250 g ai/ha): 40
RICE crop damage, phytotoxicity rating (0-100 scale) ([13]; 125 g ai/ha): 60
RICE crop damage, phytotoxicity rating (0-100 scale) ([13]; 250 g ai/ha): 75
ECHCG phytotoxicity rating (0-100 scale) ([14]; 125 g ai/ha): 90
ECHCG phytotoxicity rating (0-100 scale) ([14]; 250 g ai/ha): 95
AMBEL phytotoxicity rating (0-100 scale) ([15]; 31.3 g ai/ha): 80
AMBEL phytotoxicity rating (0-100 scale) ([15]; 62.5 g ai/ha): 85
AMBEL phytotoxicity rating (0-100 scale) [15, 27]: 85
AMBEL phytotoxicity rating (0-100 scale) [15, 28]: 90
SETVI phytotoxicity rating (0-100 scale) ([16]; 31.3 g ai/ha): 100
SETVI phytotoxicity rating (0-100 scale) ([16]; 62.5 g ai/ha): 100
SETVI phytotoxicity rating (0-100 scale) [16, 27]: 100
SETVI phytotoxicity rating (0-100 scale) [16, 28]: 100
IPOHE phytotoxicity rating (0-100 scale) ([17]; 125 g ai/ha): 100
IPOHE phytotoxicity rating (0-100 scale) ([17]; 250 g ai/ha): 100
SORHA phytotoxicity rating (0-100 scale) ([18]; 125 g ai/ha): 80
SORHA phytotoxicity rating (0-100 scale) ([18]; 250 g ai/ha): 95
CHEAL phytotoxicity rating (0-100 scale) ([19]; 31.3 g ai/ha): 100
CHEAL phytotoxicity rating (0-100 scale) ([19]; 62.5 g ai/ha): 100
CHEAL phytotoxicity rating (0-100 scale) [19, 27]: 100
CHEAL phytotoxicity rating (0-100 scale) [19, 28]: 100
DIGSA phytotoxicity rating (0-100 scale) ([20]; 125 g ai/ha): 75
DIGSA phytotoxicity rating (0-100 scale) ([20]; 250 g ai/ha): 80
AMARE phytotoxicity rating (0-100 scale) ([21]; 31.3 g ai/ha): 100
AMARE phytotoxicity rating (0-100 scale) ([21]; 62.5 g ai/ha): 100
AMARE phytotoxicity rating (0-100 scale) [21, 27]: 100
AMARE phytotoxicity rating (0-100 scale) [21, 28]: 100
CASOB phytotoxicity rating (0-100 scale) ([22]; 31.3 g ai/ha): 100
CASOB phytotoxicity rating (0-100 scale) ([22]; 62.5 g ai/ha): 100
CASOB phytotoxicity rating (0-100 scale) [22, 27]: 100
CASOB phytotoxicity rating (0-100 scale) [22, 28]: 100
ABUTH phytotoxicity rating (0-100 scale) ([23]; 125 g ai/ha): 100
ABUTH phytotoxicity rating (0-100 scale) ([23]; 250 g ai/ha): 100
CORN selectivity, phytotoxicity rating (0-100 scale) ([24]; 31.3 g ai/ha): 3
CORN selectivity, phytotoxicity rating (0-100 scale) ([24]; 62.5 g ai/ha): 10
CORN crop damage, phytotoxicity rating (0-100 scale) ([24]; 125 g ai/ha): 15
CORN crop damage, phytotoxicity rating (0-100 scale) ([24]; 250 g ai/ha): 15
SOY crop damage, phytotoxicity rating (0-100 scale) ([25]; 125 g ai/ha): 99
SOY crop damage, phytotoxicity rating (0-100 scale) ([25]; 250 g ai/ha): 99
RICE crop damage, phytotoxicity rating (0-100 scale) ([26]; 125 g ai/ha): 95
RICE crop damage, phytotoxicity rating (0-100 scale) ([26]; 250 g ai/ha): 98

N#Cc1c(-c2cc(Oc3ncccn3)c(Cl)cc2F)nn2c1CCCC2 [Compound 6-17]
ECHCG phytotoxicity rating (0-100 scale) ([1]; 125 g ai/ha): 60
ECHCG phytotoxicity rating (0-100 scale) ([1]; 250 g ai/ha): 98
AMBEL phytotoxicity rating (0-100 scale) ([2]; 125 g ai/ha): 35
AMBEL phytotoxicity rating (0-100 scale) ([2]; 250 g ai/ha): 25
SETVI phytotoxicity rating (0-100 scale) ([3]; 125 g ai/ha): 100
SETVI phytotoxicity rating (0-100 scale) ([3]; 250 g ai/ha): 100
IPOHE phytotoxicity rating (0-100 scale) ([4]; 125 g ai/ha): 0
IPOHE phytotoxicity rating (0-100 scale) ([4]; 250 g ai/ha): 0
SORHA phytotoxicity rating (0-100 scale) ([5]; 125 g ai/ha): 95
SORHA phytotoxicity rating (0-100 scale) ([5]; 250 g ai/ha): 98
CHEAL phytotoxicity rating (0-100 scale) ([6]; 125 g ai/ha): 100
CHEAL phytotoxicity rating (0-100 scale) ([6]; 250 g ai/ha): 100
DIGSA phytotoxicity rating (0-100 scale) ([7]; 125 g ai/ha): 99
DIGSA phytotoxicity rating (0-100 scale) ([7]; 250 g ai/ha): 100
AMARE phytotoxicity rating (0-100 scale) ([8]; 125 g ai/ha): 100
AMARE phytotoxicity rating (0-100 scale) ([8]; 250 g ai/ha): 100
CASOB phytotoxicity rating (0-100 scale) ([9]; 125 g ai/ha): 0
CASOB phytotoxicity rating (0-100 scale) ([9]; 250 g ai/ha): 25
ABUTH phytotoxicity rating (0-100 scale) ([10]; 125 g ai/ha): 85
ABUTH phytotoxicity rating (0-100 scale) ([10]; 250 g ai/ha): 100
CORN crop damage, phytotoxicity rating (0-100 scale) ([11]; 125 g ai/ha): 0
CORN crop damage, phytotoxicity rating (0-100 scale) ([11]; 250 g ai/ha): 0
SOY crop damage, phytotoxicity rating (0-100 scale) ([12]; 125 g ai/ha): 0
SOY crop damage, phytotoxicity rating (0-100 scale) ([12]; 250 g ai/ha): 0
RICE crop damage, phytotoxicity rating (0-100 scale) ([13]; 125 g ai/ha): 25
RICE crop damage, phytotoxicity rating (0-100 scale) ([13]; 250 g ai/ha): 35
ECHCG phytotoxicity rating (0-100 scale) ([14]; 125 g ai/ha): 60
ECHCG phytotoxicity rating (0-100 scale) ([14]; 250 g ai/ha): 65
AMBEL phytotoxicity rating (0-100 scale) [15, 27]: 60
AMBEL phytotoxicity rating (0-100 scale) [15, 28]: 75
SETVI phytotoxicity rating (0-100 scale) [16, 27]: 90
SETVI phytotoxicity rating (0-100 scale) [16, 28]: 90
IPOHE phytotoxicity rating (0-100 scale) ([17]; 125 g ai/ha): 100
IPOHE phytotoxicity rating (0-100 scale) ([17]; 250 g ai/ha): 100
SORHA phytotoxicity rating (0-100 scale) ([18]; 125 g ai/ha): 0
SORHA phytotoxicity rating (0-100 scale) ([18]; 250 g ai/ha): 30
CHEAL phytotoxicity rating (0-100 scale) [19, 27]: 100
CHEAL phytotoxicity rating (0-100 scale) [19, 28]: 100
DIGSA phytotoxicity rating (0-100 scale) ([20]; 125 g ai/ha): 0
DIGSA phytotoxicity rating (0-100 scale) ([20]; 250 g ai/ha): 25
AMARE phytotoxicity rating (0-100 scale) [21, 27]: 100
AMARE phytotoxicity rating (0-100 scale) [21, 28]: 100
CASOB phytotoxicity rating (0-100 scale) [22, 27]: 70
CASOB phytotoxicity rating (0-100 scale) [22, 28]: 95
ABUTH phytotoxicity rating (0-100 scale) ([23]; 125 g ai/ha): 100
ABUTH phytotoxicity rating (0-100 scale) ([23]; 250 g ai/ha): 100
CORN crop damage, phytotoxicity rating (0-100 scale) ([24]; 125 g ai/ha): 0
CORN crop damage, phytotoxicity rating (0-100 scale) ([24]; 250 g ai/ha): 5
SOY crop damage, phytotoxicity rating (0-100 scale) ([25]; 125 g ai/ha): 70
SOY crop damage, phytotoxicity rating (0-100 scale) ([25]; 250 g ai/ha): 70
RICE crop damage, phytotoxicity rating (0-100 scale) ([26]; 125 g ai/ha): 80
RICE crop damage, phytotoxicity rating (0-100 scale) ([26]; 250 g ai/ha): 80
